Laboratory results published in PMC10247784, “Physiological activation of human and mouse bitter taste receptors by bile acids” (Communications Biology, 2023).
“And” between values parts separate entries of the source, which are not always exact repeats. Equal values may be shown once.

Biological target: T1, human TAS2R4 (Homo sapiens, UniProt Q9NYW5)
T1 construct: expressed in transfected cells; host or cells: HEK293T-Gα16gust44
T1 sequence (Q9NYW5 1-299): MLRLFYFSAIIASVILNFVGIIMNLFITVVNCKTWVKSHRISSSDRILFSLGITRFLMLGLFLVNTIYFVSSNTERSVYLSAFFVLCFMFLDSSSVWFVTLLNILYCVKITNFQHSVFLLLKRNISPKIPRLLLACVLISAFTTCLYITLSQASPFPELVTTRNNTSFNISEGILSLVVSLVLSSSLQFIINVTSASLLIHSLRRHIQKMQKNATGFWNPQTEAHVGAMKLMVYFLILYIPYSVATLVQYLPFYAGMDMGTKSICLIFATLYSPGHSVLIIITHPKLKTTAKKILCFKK
Assay: Calcium imaging assay (FLIPR), HEK293T-Gα16gust44 cells transfected with human TAS2R4
Assay type: cell-based
In short: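 HEK293T-Gα16gust44 cells transiently transfected with the bitter-taste receptor, loaded next day with Fluo-4-AM plus 2.5 mM probenecid, and challenged with bile acids on FLIPR Tetra. Signals mock-subtracted, expressed as ΔF/F vs buffer.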

## C[C@H](CCC(=O)NCCS(=O)(=O)O)[C@H]1CC[C@H]2[C@@H]3CC[C@@H]4C[C@H](O)CC[C@]4(C)[C@H]3CC[C@]12C [Taurolithocholic Acid, taurolithocholic acid]
TAS2R4, bile acids, mean
  Efficacy = maximal amplitude (ΔF/F): 0.1385
TAS2R4, bile acids, single replicates, listed as TLCA
  Efficacy (maximal amplitude ΔF/F), individual data points: 0.1344 and 0.1516 and 0.119 and 0.1444 and 0.143
Time (s) 0
  RLU, fluorescence trace: 0 RLU
Time (s) 2
  RLU, fluorescence trace: -14.866 RLU
Time (s) 4
  RLU, fluorescence trace: -10.9022 RLU
Time (s) 6
  RLU, fluorescence trace: -0.9261 RLU
Time (s) 8
  RLU, fluorescence trace: -7.834 RLU
Time (s) 12
  RLU, fluorescence trace: -12.8379 RLU
Time (s) 14
  RLU, fluorescence trace: 6.067 RLU
Time (s) 16
  RLU, fluorescence trace: 3.969 RLU
Time (s) 18
  RLU, fluorescence trace: -13.8081 RLU
Time (s) 18.766 (TCA, TLCA: 18.782)
  RLU, fluorescence trace: -6.318 RLU
Time (s) 20.781 (TCA, TLCA: 20.782)
  RLU, fluorescence trace: 0.7554 RLU
Time (s) 22.781 (TCA, TLCA: 22.782)
  RLU, fluorescence trace: 22.9324 RLU
Time (s) 24.781 (TCA, TLCA: 24.782)
  RLU, fluorescence trace: 4.9 RLU
Time (s) 26.781 (TCA, TLCA: 26.782)
  RLU, fluorescence trace: 24.977 RLU
Time (s) 28.781 (TCA, TLCA: 28.782)
  RLU, fluorescence trace: 22.993 RLU
Time (s) 30.781 (TCA, TLCA: 30.782)
  RLU, fluorescence trace: 49.0114 RLU
Time (s) 32.781 (TCA, TLCA: 32.782)
  RLU, fluorescence trace: 81.1426 RLU
Time (s) 34.781 (TCA, TLCA: 34.782)
  RLU, fluorescence trace: 109.126 RLU
Time (s) 36.781 (TCA, TLCA: 36.782)
  RLU, fluorescence trace: 126.942 RLU
Time (s) 38.781 (TCA, TLCA: 38.782)
  RLU, fluorescence trace: 159.412 RLU
Time (s) 40.781 (TCA, TLCA: 40.782)
  RLU, fluorescence trace: 175 RLU
Time (s) 42.781 (TCA, TLCA: 42.782)
  RLU, fluorescence trace: 193.772 RLU
Time (s) 44.781 (TCA, TLCA: 44.782)
  RLU, fluorescence trace: 218.413 RLU
Time (s) 46.781 (TCA, TLCA: 46.782)
  RLU, fluorescence trace: 198.067 RLU
Time (s) 48.781 (TCA, TLCA: 48.782)
  RLU, fluorescence trace: 224.737 RLU
Time (s) 50.781 (TCA, TLCA: 50.782)
  RLU, fluorescence trace: 242.508 RLU
Time (s) 52.781 (TCA, TLCA: 52.782)
  RLU, fluorescence trace: 256.995 RLU
Time (s) 54.781 (TCA, TLCA: 54.782)
  RLU, fluorescence trace: 227.079 RLU
Time (s) 56.781 (TCA, TLCA: 56.782)
  RLU, fluorescence trace: 225.961 RLU
Time (s) 58.781 (TCA, TLCA: 58.782)
  RLU, fluorescence trace: 271.056 RLU
Time (s) 60.781 (TCA, TLCA: 60.782)
  RLU, fluorescence trace: 261.6 RLU
Time (s) 62.781 (TCA, TLCA: 62.782)
  RLU, fluorescence trace: 251.574 RLU
Time (s) 64.781 (TCA, TLCA: 64.782)
  RLU, fluorescence trace: 292.569 RLU
Time (s) 66.781 (TCA, TLCA: 66.782)
  RLU, fluorescence trace: 280.396 RLU
Time (s) 68.781 (TCA, TLCA: 68.782)
  RLU, fluorescence trace: 265.03 RLU
Time (s) 70.781 (TCA, TLCA: 70.782)
  RLU, fluorescence trace: 284.572 RLU
Time (s) 72.781 (TCA, TLCA: 72.782)
  RLU, fluorescence trace: 284.878 RLU
Time (s) 74.781 (TCA, TLCA: 74.782)
  RLU, fluorescence trace: 290.176 RLU
Time (s) 76.781 (TCA, TLCA: 76.782)
  RLU, fluorescence trace: 292.885 RLU
Time (s) 78.781 (TCA, TLCA: 78.782)
  RLU, fluorescence trace: 302.496 RLU
Time (s) 80.781 (TCA, TLCA: 80.782)
  RLU, fluorescence trace: 299.577 RLU
Time (s) 82.781 (TCA, TLCA: 82.782)
  RLU, fluorescence trace: 289.637 RLU
Time (s) 84.781 (TCA, TLCA: 84.782)
  RLU, fluorescence trace: 284.791 RLU
Time (s) 86.781 (TCA, TLCA: 86.782)
  RLU, fluorescence trace: 284.228 RLU
Time (s) 88.781 (TCA, TLCA: 88.782)
  RLU, fluorescence trace: 289.096 RLU
Time (s) 90.781 (TCA, TLCA: 90.782)
  RLU, fluorescence trace: 288.658 RLU
Time (s) 92.781 (TCA, TLCA: 92.782)
  RLU, fluorescence trace: 295.597 RLU
Time (s) 94.781 (TCA, TLCA: 94.782)
  RLU, fluorescence trace: 300.252 RLU
Time (s) 96.781 (TCA, TLCA: 96.782)
  RLU, fluorescence trace: 303.134 RLU
Time (s) 98.781 (TCA, TLCA: 98.782)
  RLU, fluorescence trace: 268.467 RLU
Time (s) 100.781 (TCA, TLCA: 100.782)
  RLU, fluorescence trace: 282.827 RLU
Time (s) 102.781 (TCA, TLCA: 102.782)
  RLU, fluorescence trace: 280.287 RLU
Time (s) 104.781 (TCA, TLCA: 104.782)
  RLU, fluorescence trace: 297.596 RLU
Time (s) 106.781 (TCA, TLCA: 106.782)
  RLU, fluorescence trace: 261.785 RLU
Time (s) 108.781 (TCA, TLCA: 108.782)
  RLU, fluorescence trace: 279.776 RLU
Time (s) 110.781 (TCA, TLCA: 110.782)
  RLU, fluorescence trace: 253.834 RLU
Time (s) 112.781 (TCA, TLCA: 112.782)
  RLU, fluorescence trace: 272.21 RLU
Time (s) 114.781 (TCA, TLCA: 114.782)
  RLU, fluorescence trace: 268.219 RLU
Time (s) 116.781 (TCA, TLCA: 116.782)
  RLU, fluorescence trace: 268.998 RLU
Time (s) 118.781 (TCA, TLCA: 118.782)
  RLU, fluorescence trace: 262.891 RLU
Time (s) 120.781 (TCA, TLCA: 120.782)
  RLU, fluorescence trace: 267.293 RLU
Time (s) 122.781 (TCA, TLCA: 122.782)
  RLU, fluorescence trace: 280.896 RLU
Time (s) 124.781 (TCA, TLCA: 124.782)
  RLU, fluorescence trace: 273.898 RLU
Time (s) 126.781 (TCA, TLCA: 126.782)
  RLU, fluorescence trace: 249.374 RLU
Time (s) 128.781 (TCA, TLCA: 128.782)
  RLU, fluorescence trace: 270.269 RLU
Time (s) 130.781 (TCA, TLCA: 130.782)
  RLU, fluorescence trace: 267.674 RLU
Time (s) 132.781 (TCA, TLCA: 132.782)
  RLU, fluorescence trace: 259.914 RLU
Time (s) 134.781 (TCA, TLCA: 134.782)
  RLU, fluorescence trace: 243.112 RLU
Time (s) 136.781 (TCA, TLCA: 136.782)
  RLU, fluorescence trace: 250.545 RLU
Time (s) 137.547
  RLU, fluorescence trace: 251.257 RLU
Time (s) 143.547
  RLU, fluorescence trace: 215.734 RLU
Time (s) 149.547
  RLU, fluorescence trace: 237.866 RLU
Time (s) 155.547
  RLU, fluorescence trace: 193.672 RLU
Time (s) 161.547
  RLU, fluorescence trace: 207.578 RLU
Time (s) 167.547
  RLU, fluorescence trace: 205.902 RLU
Time (s) 173.547
  RLU, fluorescence trace: 204.036 RLU
Time (s) 179.547
  RLU, fluorescence trace: 180.442 RLU
Time (s) 185.547
  RLU, fluorescence trace: 185.763 RLU
Time (s) 191.547
  RLU, fluorescence trace: 137.563 RLU
Time (s) 197.547
  RLU, fluorescence trace: 147.254 RLU
Time (s) 203.547
  RLU, fluorescence trace: 133.472 RLU
Time (s) 209.547
  RLU, fluorescence trace: 90.5191 RLU
Time (s) 215.547
  RLU, fluorescence trace: 65.3811 RLU
Time (s) 221.547
  RLU, fluorescence trace: 77.9879 RLU
Time (s) 227.547
  RLU, fluorescence trace: 99.7214 RLU
Time (s) 233.547
  RLU, fluorescence trace: 126.783 RLU
Time (s) 239.547
  RLU, fluorescence trace: 132.165 RLU
Time (s) 245.547
  RLU, fluorescence trace: 104.275 RLU
Time (s) 293.547
  RLU, fluorescence trace: 136.191 RLU
Time (s) 299.547
  RLU, fluorescence trace: 118.82 RLU
Time (s) 305.547
  RLU, fluorescence trace: 140.647 RLU
Time (s) 311.547
  RLU, fluorescence trace: 122.148 RLU
Time (s) 317.547
  RLU, fluorescence trace: 88.8315 RLU
Time (s) 323.547
  RLU, fluorescence trace: 111.642 RLU
Time (s) 329.547
  RLU, fluorescence trace: 124.756 RLU
Time (s) 335.547
  RLU, fluorescence trace: 109.477 RLU
Time (s) 341.547
  RLU, fluorescence trace: 98.825 RLU
Time (s) 347.547
  RLU, fluorescence trace: 92.346 RLU
Time (s) 353.547
  RLU, fluorescence trace: 124.878 RLU
Time (s) 359.547
  RLU, fluorescence trace: 119.545 RLU
Lowest concentration with significantly increased fluorescence vs empty vector (p < 0.01)
  Activation threshold concentration TAS2R4: 1 µM
